The numbers were not newly measured in patent US20250177336A1 (RX BANDZ, INC., priority 2023, published 2025), which cites them from elsewhere.

SMILES strings stand for the structures.

The conditions of the series: zwitterionic form predominates.

In the case of `NC[C@H]1CC[C@H](C(=O)O)CC1` [TXA, Tranexamic acid], the isoelectric point is on record as approximately 7.3 pH.
